From ChEMBL document CHEMBL5523731, “Bitopic Ligands Support the Presence of a Metastable Binding Site at the β2 Adrenergic Receptor” (J Med Chem, 2024) come the findings set out here.

In test [1] the target is T1, Beta-2 adrenergic receptor (Homo sapiens, UniProt P07550). Nature of the test: Antagonist activity at beta-2 AR (unknown origin) overexpressed in HEK293 cell membrane assessed as inhibition of ISO-induced cAMP production at EC80 preincubated for 15 mins followed by agonist addition measured after 30 mins by TR-FRET assay. A general note: Cyclic AMP is a second messenger, typically raised through Gs and lowered through Gi signalling.
T1 sequence (P07550 whole entry): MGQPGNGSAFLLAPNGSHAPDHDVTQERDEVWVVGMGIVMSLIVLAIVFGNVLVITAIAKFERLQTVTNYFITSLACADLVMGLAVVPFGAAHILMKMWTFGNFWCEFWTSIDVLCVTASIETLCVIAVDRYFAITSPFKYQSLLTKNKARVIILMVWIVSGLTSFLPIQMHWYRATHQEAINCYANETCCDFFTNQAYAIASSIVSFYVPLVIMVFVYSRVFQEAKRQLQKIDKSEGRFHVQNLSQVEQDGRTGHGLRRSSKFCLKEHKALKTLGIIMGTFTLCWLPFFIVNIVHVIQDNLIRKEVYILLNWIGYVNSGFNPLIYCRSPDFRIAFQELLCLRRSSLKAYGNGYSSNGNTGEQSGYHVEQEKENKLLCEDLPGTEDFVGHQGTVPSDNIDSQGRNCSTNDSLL

For test [2], the target named is T1, Beta-2 adrenergic receptor. Nature of the test: Displacement of [3H]-DHA from beta-2 AR (unknown origin) overexpressed in HEK293 cell membrane assessed as inhibition constant incubated for 90 mins by liquid scintillation analysis.
The target of test [3] is T1, Beta-2 adrenergic receptor. As to the kind of experiment: Displacement of [3H]-DHA from beta-2 AR (unknown origin) overexpressed in HEK293 cell membrane assessed as dissociation constant (K) incubated for 90 mins by liquid scintillation analysis.

Usually IC50 stands for the concentration at which inhibition is half-maximal. A word on the Ki: it is the equilibrium dissociation constant of an inhibitor or competing ligand from its target. Usually Kd stands for a measure of binding affinity in units of concentration. On to `CC(C)NC[C@H](O)COc1ccc(CCCCN=[N+]=[N-])cc1`, for which, in test [1], the IC50 was 4790 nM. The Ki in test [2] was 389 nM. For the same molecule, the Kd in test [3] was 589 nM.

Turning to `CC(C)NC[C@H](O)COc1ccc(CCCN=[N+]=[N-])cc1`, the concentration for half-maximal inhibition (IC50) in test [1] is 3980 nM.
